B1: recombinant human Ang1 (rhAng1) (ligand, UniProt Q15389 16-498, looked up)
chain: HIGCSNQRRSPENSGRRYNRIQHGQCAYTFILPEHDGNCRESTTDQYNTNALQRDAPHVEPDFSSQKLQHLEHVMENYTQWLQKLENYIVENMKSEMAQIQQNAVQNHTATMLEIGTSLLSQTAEQTRKLTDVETQVLNQTSRLEIQLLENSLSTYKLEKQLLQQTNEILKIHEKNSLLEHKILEMEGKHKEELDTLKEEKENLQGLVTRQTYIIQELEKQLNRATTNNSVLQKQQLELMDTVHNLVNLCTKEGVLLKGGKREEEKPFRDCADVYQAGFNKSGIYTIYINNMPEPKKVFCNMDVNGGGWTVIQHREDGSLDFQRGWKEYKMGFGNPSGEYWLGNEFIFAITSQRQYMLRIELMDWEGNRAYSQYDRFHIGNEKQNYRLYLKGHTGTAGKQSSLILHGADFSTKDADNDNCMCKCALMLTGGWWFDACGPSNLNGMFYTAGQNHGKLNGIKWHYFKGPSYSLRSTTMMIRPLDF
notes: angiopoietin-1, human, recombinant; also called angiopoietin-1; source: bought: R&D Systems (named for the Boyden chamber experiments)

Experiments:
[1] = system: mouse Tie2-Fc (extracellular domain of Tie2); assay: pull-down assay, mouse Tie2-Fc; type: binding; settings: mouse Tie2-Fc on protein A sepharose; rhAng1 20 ng or VT 100 ng, pH 7.4, 4°C; Fig9A,B
From the text: To better understand the difficulties we had in observing Tie2 activation by VT, we sought to characterize the binding affinity and kinetics of VT to Tie2. Purified human or mouse Tie2-Fc (i.e., Fc-conjugated extracellular domains of Tie2) were first coupled to protein A sepharose beads for pull-down experiments (Fig9A and B) or immobilized on a Biacore CM5 sensor chip for surface plasmon resonance (SPR) experiments (Fig9C and Supplementary Fig S3).
Figure 9 Binding of Vasculotide vs. Ang1 variants to the extracellular domain of Tie2 • A–B Pull-down assay. Input ligands—rhAng1 (A) and VT (B)—were incubated with either protein A sepharose beads only, bead-conjugated mouse Tie2-Fc (mTie2), or bead-conjugated human Tie2-Fc (hTie2). […] The ‘unbound’ fraction is 7% of residual/free ligands remaining in the supernatant. • C Quantitative kinetics analysis by SPR. All analytes were run at increasing concentrations of 0.625, 1.25, 2.5, 5, and 10 nM, at 37°C and pH 7.4. […] Source data are available online for this figure. […]
Semi-quantitative densitometry analysis of immunoblots was performed using the ChemiGenius2 bioimaging system and GeneSnap/GeneTools software (Syngene). […]

[2] = system: tumor cells across dermal HMVECs; assay: modified Boyden chamber, TC-CM stimulated tumor cell migration; type: cell-based, human; settings: Fig4B; for TC migration in presence of TC-CM: 20 ng/mL VT or 400 ng/mL Ang1 vs PBS, paired t-test, n = 6 experimental replicates; for inhibition of TC migration, on average: 20 ng/mL VT
Description: To investigate this possibility in vitro, we performed modified Boyden chamber assays where we stimulated ECs with tumor cell-conditioned media (TC-CM)—that is, supplement-reduced EC growth media containing all the cytokines naturally secreted by LM2-4^luc, SN12^luc, or HT29^luc cells over 30 hours of hypoxic incubation (1% O2).
Meta-analyses of treatment effects on dextran permeability (A) and tumor cell migration (B), where each datapoint represents the mean of an independent experiment, averaged over 2–3 biological replicates (inserts) per treatment group and normalized internally within that same experiment.
Endothelial cells (ECs) were grown on cell culture inserts with uncoated 8-μm-pore PET filter membranes to 100% confluency. See Supplementary Fig S4 for detailed timelines. […] Permeability assays: A total of 100 μg of FITC-dextran (Sigma FD-20S) was dispensed into the upper chamber media. After 30 min of thrombin stimulation or 4–6 h of TC-CM stimulation, FITC fluorescence (ex/em = 490/520 nm) was measured from a 50 μl sample of the lower chamber media. Tumor cell extravasation assays: A total of 4 × 10^4 TCs freshly labeled with CellTracker™ Red CMPTX (Invitrogen C34552: ex/em = 577/602 nm) were seeded into each insert. Where EDTA was used in the permeability assay, the assay media was changed to remove EDTA before introducing TCs. After a 15- to 30-h incubation, the ECs and non-migrated TCs above insert membranes were removed with a cotton swab, whereas migrated/‘extravasated’ TCs and ECs below insert membranes were fixed in 4% PFA. Fixed membranes were mounted onto slides with DAPI stain. CMPTX fluorescence from migrated TCs was then quantified from 10× microscopy images using a MATLAB (MathWorks, Natick, MA, USA) script; five images (technical replicates) were analyzed per insert.
TCs were cultured in DMEM High Glucose basal media supplemented with 5% FBS and grown humidified incubators at 37 °C, 21%O2 and 5%CO2 unless otherwise specified. LM2-4 luc is a highly metastatically aggressive variant of the human breast carcinoma MDA-MB-231 cell line (derived through serial in vivo selection of lung metastases from orthotopic implantations in immunodeficient mice) that has been transfected with a firefly luciferase vector (Man et al, 2007; Ebos et al, 2009). HT29luc is a human colon carcinoma cell line also transfected with the luciferase gene (Hackl et al, 2013). SN12luc refers to a luciferase-tagged and highly metastatic clone of a human renal cell carcinoma cell line, SN12-

Row | Molecule | pull-down by Tie2-Fc [1] | TC migration in presence of TC-CM [2] | inhibition of TC migration, on average ([2]; LM2-4luc-conditioned media) [%] | inhibition of TC migration, on average ([2]; SN12luc-conditioned media) [%]
1 | CHHHRHSF [Vasculotide, 4-armed maleimide-functionalized polyethylene glycol (PEG) backbone to link together four cysteine-capped T7 peptides, that is, CHHHRHSF] | did not pull down any appreciable levels | P = 0.10 for VT | −43 | −23
2 | B1 | effectively pulled down the majority | P < 0.05 for Ang1 |  | 
